Laboratory results: patent US6872562B2, “Herbicide resistant dinitrogen fixing bacteria and method of use” (priority 2001, dated 2005)

Columns and labels:
[1] = tested on: GR soybean cultivars A5901RR and DK5961RR; experiment: Field experiments at Keiser and Fayetteville, Arkansas: biomass and seed yield; format: in vivo, soybean (Glycine max)
Description: Field experiments were conducted at Fayetteville and Keiser, Ark., to evaluate the response of GR soybean cultivars to foliar applications of glyphosate under field conditions susceptible to drought stress. […] Delannay et al. (1995) reported three experiments out of 58 in which yields were less than 1500 kg ha^−1, but there was no indication as to the cause of these low yields. The Fayetteville experiment was conducted on a Pembroke silt loam (Ultic Paleudalfs) on 15-cm-high beds spaced 1 m apart. Water was applied as needed until mid-reproductive development (R5) with sprinkle irrigation. At Keiser the soil was a Sharkey silty-clay (Vertic Haplaquepts), and soybean was planted on a flat seedbed with rows 0.96 m apart. Irrigation was applied with an overhead, lateral-move system.
Experiments at both locations were a factorial of two cultivars and five herbicide treatments in a randomized complete block design with four replications. Plots were four rows wide by 9 m long. […] The seeding rate was 370,000 ha^−1 at both locations.
Herbicides were applied as a broadcast treatment, sprayed over-the-top of the canopy with a CO2-powered backpack sprayer in a volume of 93 L ha^−1. […] All herbicide treatments contained appropriate surfactants. Plants were at V1, V4, and V9 development stages at 7, 21, and 35 DAE application timings, respectively, at both locations. R2 applications were made at 45 and 48 DAE at Fayetteville and Keiser, respectively. Plots were maintained weed free by hand weeding as needed. Four replications of the non-nodulating isoline of the cultivar ‘Lee’ were included at each location as an indicator of plant-available soil nitrogen.
Samples were prepared and analyzed for total nitrogen as previously described. Seed yield was determined by harvesting 4.5 m from each of the center two rows. Average seed mass was determined from a random sample of 100 seeds. Biomass data were evaluated by comparing the means±standard errors between herbicide treatments within a cultivar and sample date. […]

cultivar TV5866RR = experiment: Growth cabinet: nitrogenase activity (relative ARA) under soil-water deficits; format: in vivo, soybean (Glycine max)
Description: Plants were established in flow-through pots (Purcell et al., 1997) for nondestructive measurement of acetylene-reduction activity (ARA) as an indicator of relative nitrogenase activity. Pots were constructed of 10-cm-diameter, 40-cm-long polyvinyl chloride pipe, sealed at the bottom and top with end caps. Fittings were inserted into the bottom for drainage and introduction of air samples during ARA measurements, and into the top for air exhaust and sampling. Pot tare weights were recorded prior to adding potting mixture. Potting media and nutrients were the same as described in Examples 1-3. […] After allowing excess water to drain for 12 h, pot capacity weights were recorded. […]
ARA was measured beginning 28 DAE by introducing a 9:1 air to acetylene mixture at 0.5 L min^−1 into the bottom of the pots that were sealed around the plant root system. […] Ethylene concentration in the gas samples was quantified by gas chromatography using a flame ionization detector and a Porapak N column (de Silva et al., 1996). […] Ethylene concentrations were expressed as μmol C2H4 plant^−1h^−1, and means within an experiment and sample date were compared using standard errors. […]
Soil-water data were converted from pot capacity weight to fraction of the transpirable soil water (FTSW) (de Silva et al., 1996). […] Soil weight at zero transpirable water was determined to be 0.24 of the soil weight at pot capacity. […]

Strains USDA 123 and 138 = settings: 5 mM concentration; cited from earlier work

O=C(O)CNCP(=O)(O)O [glyphosate, N-(phosphonomethyl)glycine]
Soybean seed yield ([1]; Fayetteville, A5901RR, glyphosate 1: 7 & 21 DAE): 2053a kg ha^−1 | Soybean seed yield ([1]; Fayetteville, A5901RR, glyphosate 2: 7 & 49 DAE): 2057a kg ha^−1 | Soybean seed yield ([1]; Fayetteville, A5901RR, glyphosate 3: 21 & 35 DAE): 1999a kg ha^−1 | Soybean seed yield ([1]; Fayetteville, DK5961RR, glyphosate 1: 7 & 21 DAE): 1854a kg ha^−1 | Soybean seed yield ([1]; Fayetteville, DK5961RR, glyphosate 2: 7 & 49 DAE): 1798a kg ha^−1 | Soybean seed yield ([1]; Fayetteville, DK5961RR, glyphosate 3: 21 & 35 DAE): 1992a kg ha^−1 | Biomass vs untreated check ([1]; Keiser, A5901RR, 92 DAE): significantly less biomass | Soybean seed yield ([1]; Keiser, A5901RR, glyphosate 1: 1.68 kg ha^−1 at 7 & 21 DAE): 974b kg ha^−1 | Soybean seed yield ([1]; Keiser, A5901RR, glyphosate 2: 1.68 kg ha^−1 at 7 & 49 DAE): 1138ab kg ha^−1 | Soybean seed yield ([1]; Keiser, A5901RR, glyphosate 3: 1.68 kg ha^−1 at 21 & 35 DAE): 1050ab kg ha^−1 | Yield vs check ([1]; Keiser, A5901RR, glyphosate at 7 followed by 21 DAE): significantly lower yield | Biomass vs other treatments ([1]; Keiser, DK5961RR, 92 DAE, glyphosate at 7 followed by 21 DAE or at 7 followed by 49 DAE): tended to be lower | Soybean seed yield ([1]; Keiser, DK5961RR, glyphosate 1: 7 & 21 DAE): 1197ab kg ha^−1 | Soybean seed yield ([1]; Keiser, DK5961RR, glyphosate 2: 7 & 49 DAE): 989b kg ha^−1 | Soybean seed yield ([1]; Keiser, DK5961RR, glyphosate 3: 21 & 35 DAE): 1291a kg ha^−1 | Yield decrease ([1]; Keiser, DK5961RR, glyphosate at 7 followed by 21 DAE): 24% | Yield lower than untreated check ([1]; Keiser, DK5961RR, glyphosate at 7 followed by 49 DAE): 8% | Seed yields vs untreated check ([1]; Keiser, DK5961RR, other glyphosate and standard herbicide treatments): numerically equal to the untreated check | Sensitivity of ARA to water deficits vs untreated plants (cultivar TV5866RR; in vivo): more sensitive | Nitrogenase activity, % of the well-watered control (cultivar TV5866RR; water-deficit plants at FTSW of 0.21, 1.68 kg ha^−1 on 5, 12, and 19 DAE): 71% | Inhibition (Strains USDA 123 and 138): 100%
